Where only a bound is given, the exact number is not on record here.

What all share (test): Inhibitor Assay
What all share (details): 30 °C

Test [1] has as its target T1, Tyrosine-protein phosphatase non-receptor type 1 (Homo sapiens, UniProt P18031).
T1 sequence (P18031 whole entry): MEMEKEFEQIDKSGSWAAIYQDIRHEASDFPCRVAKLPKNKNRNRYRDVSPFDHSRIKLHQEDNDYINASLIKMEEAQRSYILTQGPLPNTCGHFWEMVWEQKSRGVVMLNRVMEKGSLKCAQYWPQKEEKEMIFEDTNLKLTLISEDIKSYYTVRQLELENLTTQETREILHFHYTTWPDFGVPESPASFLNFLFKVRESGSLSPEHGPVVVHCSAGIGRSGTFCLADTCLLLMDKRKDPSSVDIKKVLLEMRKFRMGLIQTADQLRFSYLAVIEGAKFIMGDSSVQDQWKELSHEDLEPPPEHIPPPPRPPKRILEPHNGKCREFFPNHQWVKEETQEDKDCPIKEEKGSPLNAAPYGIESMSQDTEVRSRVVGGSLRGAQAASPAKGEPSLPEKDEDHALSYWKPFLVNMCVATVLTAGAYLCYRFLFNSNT
The method, then: The assay mixture ([…]) containing 50 mM MOPS (pH 6.5), 2 mM pNPP and PTP1B were monitored at 405 nm for 2 min at 30 C.

Test [2] has as its target Receptor-type tyrosine-protein phosphatase F (Homo sapiens, UniProt P10586).
The target in test [3] is T2, Tyrosine-protein phosphatase non-receptor type 11 (Homo sapiens, UniProt Q06124).
T2 sequence (Q06124 whole entry): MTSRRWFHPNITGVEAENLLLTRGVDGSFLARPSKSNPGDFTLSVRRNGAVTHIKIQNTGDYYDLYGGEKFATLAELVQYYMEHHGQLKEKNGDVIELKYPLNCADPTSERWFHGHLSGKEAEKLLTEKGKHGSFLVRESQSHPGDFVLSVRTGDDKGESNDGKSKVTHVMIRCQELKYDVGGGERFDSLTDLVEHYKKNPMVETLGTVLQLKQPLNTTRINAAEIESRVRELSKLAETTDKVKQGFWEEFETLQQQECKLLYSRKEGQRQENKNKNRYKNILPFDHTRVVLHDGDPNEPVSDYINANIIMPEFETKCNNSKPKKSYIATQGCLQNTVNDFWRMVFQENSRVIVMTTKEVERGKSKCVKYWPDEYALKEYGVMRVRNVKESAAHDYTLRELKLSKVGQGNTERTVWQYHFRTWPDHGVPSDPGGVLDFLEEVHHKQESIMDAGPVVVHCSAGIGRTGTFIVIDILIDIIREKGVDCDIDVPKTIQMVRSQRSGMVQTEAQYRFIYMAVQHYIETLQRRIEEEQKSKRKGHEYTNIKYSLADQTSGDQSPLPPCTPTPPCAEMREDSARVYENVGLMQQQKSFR

Test [4] concerns the target T3, Tyrosine-protein phosphatase non-receptor type 2 (Homo sapiens, UniProt P17706).
T3 sequence (P17706 whole entry): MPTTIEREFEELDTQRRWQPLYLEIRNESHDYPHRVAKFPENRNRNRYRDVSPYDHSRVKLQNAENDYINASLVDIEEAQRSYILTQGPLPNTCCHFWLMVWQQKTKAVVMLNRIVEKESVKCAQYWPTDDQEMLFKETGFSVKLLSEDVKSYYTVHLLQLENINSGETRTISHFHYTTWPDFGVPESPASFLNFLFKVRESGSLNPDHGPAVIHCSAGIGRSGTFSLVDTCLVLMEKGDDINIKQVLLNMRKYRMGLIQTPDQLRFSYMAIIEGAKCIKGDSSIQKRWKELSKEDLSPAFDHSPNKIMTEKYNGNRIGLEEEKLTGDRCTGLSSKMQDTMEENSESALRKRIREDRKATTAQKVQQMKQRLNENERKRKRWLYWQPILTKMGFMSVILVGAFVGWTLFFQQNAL

Test [5] has as its target Tyrosine-protein phosphatase non-receptor type 6 (Homo sapiens, UniProt P29350).

Tyrosine-protein phosphatase non-receptor type 6, sequence (P29350 whole entry): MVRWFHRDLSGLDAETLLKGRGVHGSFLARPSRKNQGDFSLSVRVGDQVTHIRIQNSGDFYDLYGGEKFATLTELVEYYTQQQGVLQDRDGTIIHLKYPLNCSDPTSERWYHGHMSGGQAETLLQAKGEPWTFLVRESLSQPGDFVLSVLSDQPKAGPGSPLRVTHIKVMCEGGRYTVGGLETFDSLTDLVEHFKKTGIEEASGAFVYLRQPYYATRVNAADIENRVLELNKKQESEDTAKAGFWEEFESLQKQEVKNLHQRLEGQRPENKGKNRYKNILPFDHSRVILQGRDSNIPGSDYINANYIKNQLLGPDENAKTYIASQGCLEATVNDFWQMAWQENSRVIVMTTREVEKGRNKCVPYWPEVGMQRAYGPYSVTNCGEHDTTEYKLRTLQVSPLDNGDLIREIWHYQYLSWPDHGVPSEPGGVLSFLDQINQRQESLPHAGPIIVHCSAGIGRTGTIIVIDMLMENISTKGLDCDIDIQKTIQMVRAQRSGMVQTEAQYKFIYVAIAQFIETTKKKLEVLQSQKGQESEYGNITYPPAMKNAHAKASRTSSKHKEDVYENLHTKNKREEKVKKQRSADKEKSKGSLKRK
Receptor-type tyrosine-protein phosphatase F, sequence (P10586 whole entry): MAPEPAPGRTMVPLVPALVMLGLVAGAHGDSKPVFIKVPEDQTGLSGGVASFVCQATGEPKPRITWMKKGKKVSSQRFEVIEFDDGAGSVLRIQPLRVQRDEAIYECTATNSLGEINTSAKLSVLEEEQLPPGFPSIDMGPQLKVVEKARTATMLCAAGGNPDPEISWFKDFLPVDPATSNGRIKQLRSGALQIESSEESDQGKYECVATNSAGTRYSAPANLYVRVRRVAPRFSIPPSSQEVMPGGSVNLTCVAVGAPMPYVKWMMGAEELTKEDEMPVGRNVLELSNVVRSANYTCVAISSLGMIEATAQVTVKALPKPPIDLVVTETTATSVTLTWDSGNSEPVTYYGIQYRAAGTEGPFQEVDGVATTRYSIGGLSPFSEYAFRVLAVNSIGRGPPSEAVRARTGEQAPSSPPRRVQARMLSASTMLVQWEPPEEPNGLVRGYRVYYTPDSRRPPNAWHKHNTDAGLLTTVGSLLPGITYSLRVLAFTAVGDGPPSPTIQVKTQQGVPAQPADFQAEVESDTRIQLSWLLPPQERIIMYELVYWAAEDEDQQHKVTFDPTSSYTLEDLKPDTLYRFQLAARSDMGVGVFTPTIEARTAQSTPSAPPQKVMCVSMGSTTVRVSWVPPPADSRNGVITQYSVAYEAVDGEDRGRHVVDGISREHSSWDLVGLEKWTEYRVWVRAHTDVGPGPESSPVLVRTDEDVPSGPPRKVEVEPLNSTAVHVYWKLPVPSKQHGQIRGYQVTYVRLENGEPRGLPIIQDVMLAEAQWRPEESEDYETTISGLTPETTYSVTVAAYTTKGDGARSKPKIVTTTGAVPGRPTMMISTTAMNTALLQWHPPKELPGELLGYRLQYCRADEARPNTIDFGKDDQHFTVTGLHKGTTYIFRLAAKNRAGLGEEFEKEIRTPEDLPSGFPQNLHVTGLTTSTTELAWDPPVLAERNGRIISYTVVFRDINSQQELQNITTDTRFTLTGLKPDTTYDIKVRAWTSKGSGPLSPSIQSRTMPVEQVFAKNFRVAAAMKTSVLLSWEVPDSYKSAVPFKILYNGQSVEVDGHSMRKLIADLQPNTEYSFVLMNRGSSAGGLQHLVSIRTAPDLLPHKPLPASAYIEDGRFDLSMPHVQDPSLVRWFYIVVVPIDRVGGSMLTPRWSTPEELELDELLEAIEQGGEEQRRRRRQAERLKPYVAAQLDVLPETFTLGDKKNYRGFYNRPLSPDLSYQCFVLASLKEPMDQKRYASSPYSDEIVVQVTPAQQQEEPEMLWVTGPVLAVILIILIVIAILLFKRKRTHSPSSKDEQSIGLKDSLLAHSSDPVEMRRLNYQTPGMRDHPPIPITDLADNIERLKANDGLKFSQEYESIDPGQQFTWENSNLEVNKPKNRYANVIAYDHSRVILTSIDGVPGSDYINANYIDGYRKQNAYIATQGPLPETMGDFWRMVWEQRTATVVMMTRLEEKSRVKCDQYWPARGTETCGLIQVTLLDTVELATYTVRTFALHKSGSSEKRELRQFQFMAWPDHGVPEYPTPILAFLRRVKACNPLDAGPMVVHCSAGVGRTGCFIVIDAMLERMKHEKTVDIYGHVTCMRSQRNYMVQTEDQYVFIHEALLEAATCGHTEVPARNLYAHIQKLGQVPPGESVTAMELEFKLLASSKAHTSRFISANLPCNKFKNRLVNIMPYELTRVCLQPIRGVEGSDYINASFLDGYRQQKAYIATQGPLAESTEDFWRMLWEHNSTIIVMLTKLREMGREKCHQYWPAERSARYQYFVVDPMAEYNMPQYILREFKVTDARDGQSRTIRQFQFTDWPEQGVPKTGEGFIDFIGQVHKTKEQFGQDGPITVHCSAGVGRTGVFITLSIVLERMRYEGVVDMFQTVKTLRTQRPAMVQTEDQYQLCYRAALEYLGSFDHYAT

As a reminder, the IC50 is the concentration that gives 50% inhibition. Low readings indicate greater potency in that assay, high ones weaker potency in that assay. In turn, `COC(=O)C(=O)c1ccc(-n2cc(CO[C@H]3O[C@H](COCc4ccccc4)[C@@H](OCc4ccccc4)[C@H](OCc4ccccc4)[C@H]3OCc3ccccc3)nn2)cc1` [1-(4-(2-Methoxy-2-oxoacetyl)phenyl)-1H-1,2,3-triazol-4-ylmethyl 2,3,4,6-tetra-O-benzyl-a-D-glucopyranoside (17)] yielded an IC50 in test [1] of 12.3 µM.

Turning to `O=C(O)C(=O)c1ccc(-n2cc(CO[C@H]3O[C@H](COCc4ccccc4)[C@@H](OCc4ccccc4)[C@H](OCc4ccccc4)[C@H]3OCc3ccccc3)nn2)cc1` [1-(4-(Carboxycarbonyl)phenyl)-1H-1,2,3-triazol-4-ylmethyl 2,3,4,6-tetra-O-benzyl a-D-glucopyranoside (19)], the IC50 is 5.6 µM in test [1]; above 100 µM in test [2]; 55.4 µM in test [3]; 6.4 µM in test [4]; above 100 µM in test [5].

Compound `COC(=O)c1ccc(-n2cc(CO[C@H]3O[C@H](COCc4ccccc4)[C@@H](OCc4ccccc4)[C@H](OCc4ccccc4)[C@H]3OCc3ccccc3)nn2)cc1` [1-(4-(Methoxycarbonyl)phenyl)-1H-1,2,3-triazol-4-ylmethyl 2,3,4,6-tetra-O-benzyl a-D-glucopyranoside (16)] returned an IC50 in test [1] above 100 µM.

Turning to `CC(=O)c1ccc(-n2cc(CO[C@H]3O[C@H](COCc4ccccc4)[C@@H](OCc4ccccc4)[C@H](OCc4ccccc4)[C@H]3OCc3ccccc3)nn2)cc1` [1-(4-Acetylphenyl)-1H-1,2,3-triazol-4-ylmethyl 2,3,4,6-tetra-O-benzyl a-D-glucopyranoside (11)], the IC50 in test [1] is above 100 µM.

As to `O=C(O)c1ccc(-n2cc(CO[C@H]3O[C@H](COCc4ccccc4)[C@@H](OCc4ccccc4)[C@H](OCc4ccccc4)[C@H]3OCc3ccccc3)nn2)cc1` [1-(4-Carboxyphenyl)-1H-1,2,3-triazol-4-ylmethyl 2,3,4,6-tetra-O-benzyl a-D-glucopyranoside (18)], it took 11.1 µM to reach half-maximal inhibition in test [1] (IC50).

`[N-]=[N+]=Nc1ccc(C(=O)C(=O)O)cc1` [1-[4-(carboxycarbonyl)phenyl]triaz-2-yn-2-ium-1-ide (7)] registered an IC50 in test [1] of 30.2 µM.

In test [1], `COC(=O)C(=O)c1ccc(-n2cc(COC[C@H]3O[C@H](OC)[C@H](OCc4ccccc4)[C@@H](OCc4ccccc4)[C@@H]3OCc3ccccc3)nn2)cc1` [Methyl 2,3,4-tri-O-benzyl-6-O-[1-(4-(2-methoxy-2-oxoacetyl)phenyl)-1H-1,2,3-triazol-4-ylmethyl] a-D-glucopyranoside (13)] had an IC50 of 12.7 µM.

As for `CO[C@H]1O[C@H](COCc2cn(-c3ccc(C(=O)C(=O)O)cc3)nn2)[C@@H](OCc2ccccc2)[C@H](OCc2ccccc2)[C@H]1OCc1ccccc1` [Methyl 2,3,4-tri-O-benzyl-6-O-[1-(4-(carboxycarbonyl)phenyl)-1H-1,2,3-triazol-4-ylmethyl] a-D-glucopyranoside (15)], the IC50 is 3.2 µM in test [1]; above 100 µM in test [2]; above 100 µM in test [3]; 14.5 µM in test [4]; above 100 µM in test [5].

Turning to `COC(=O)c1ccc(-n2cc(COC[C@H]3O[C@H](OC)[C@H](OCc4ccccc4)[C@@H](OCc4ccccc4)[C@@H]3OCc3ccccc3)nn2)cc1` [Methyl 2,3,4-tri-O-benzyl-6-O-[1-(4-(methoxycarbonyl)-phenyl)-1H-1,2,3-triazol-4-ylmethyl] a-D-glucopyranoside (12)], in test [1], the IC50 was above 100 µM.

Take `CO[C@H]1O[C@H](COCc2cn(-c3ccc(C(C)=O)cc3)nn2)[C@@H](OCc2ccccc2)[C@H](OCc2ccccc2)[C@H]1OCc1ccccc1` [Methyl 2,3,4-tri-O-benzyl-6-O-[1-(4-acetylphenyl)-1H-1,2,3-triazol-4-ylmethyl] a-D-glucopyranoside (10)]: the IC50 in test [1] is above 100 µM.

For `CO[C@H]1O[C@H](COCc2cn(-c3ccc(C(=O)O)cc3)nn2)[C@@H](OCc2ccccc2)[C@H](OCc2ccccc2)[C@H]1OCc1ccccc1` [Methyl 2,3,4-tri-O-benzyl-6-O-[1-(4-carboxyphenyl)-1H-1,2,3-triazol-4-ylmethyl] a-D-glucopyranoside (14)], the IC50 in test [1] was above 100 µM.

These data come from BindingDB's records for doi:10.1016/j.carres.2010.10.023 (East China University of Science and Technology, 2011).
